Assay results from article PMC9101642 (Molecules, 2022).
Like-named read-outs stand apart in the source and are kept apart here. Marks after values point to notes of the source that are not given here.

Columns and labels:
[1] = test system: MNU-induced breast cancer; assay: In vivo anticancer screening, MNU-induced mammary tumorigenesis; design: species or system female Wistar rats
MCF-7 cell lines = assay: MTT antiproliferative assay; type: cell-based, human; conditions: read-out: MCF-7 (IC50 nM)
[2] = Serum biochemical markers after treatment of MNU-induced rats; type: in vivo, Wistar rats; design: TBC: unit not given here; conditions: for ALP (A/L) / ALT (A/L) / AST (U/L) / γ-GT (U/L): serum; for TBC: total bilirubin content
Protocol: (§1) Rats were housed at 3 per cage and
(§2) The breast cancer was induced after the MNU (Sigma Aldrich CAS No. 684-93-5) administration. An aqueous solution at a concentration of 10 mg/ml was made by wetting the NMU powder with 3% acetic acid and then dissolving it in 0.9% NaCl solution; a fresh solution was prepared for each injection. Rats were given intraperitoneal (i.p.) 50 mg/kg of MNU on the 50th day of age. Animals were divided into different groups with six animals in each group. Group I (intact control) received 0.9% NaCl solution.
(§3) Groups II-IV and V-VII were introduced with MNU. Two weeks after MNU treatment, animals were treated orally with synthesized compounds and control substances (5 and 50 mg/kg, for groups II-IV and V-VII, respectively) by gavage once per day for six weeks. Animals in the intact control group and untreated MNU group were given vehicle (Tween 80) according to the experimental protocol. […]
Upon finishing the treatment with synthesized compounds, animals were sacrificed, and plasma, serum, and liver samples were collected.
Measurement of Serum Biochemical Markers
The activities of AST and ALT on 340 nm, and ALP on 405 nm, were determined by UV-Vis kinetic methods according to recommendations of the Expert Panel of the IFCC (International Federation of Clinical Chemistry). The colorimetric methods were used for the determination of total bilirubin (Jendrassik-Grof 550 nm method). All kinetic and colorimetric measurements were recorded using a Perkin-Elmer Lambda 25 UV/Vis spectrophotometer. […]

[3] = test system: MNU-induced breast cancer tissue; assay: Histopathology of breast sections; type: in vivo, Wistar rats
Description: The impact of selected leads on BC tissue was registered after their administration to experimental animals with MNU-induced BC (Figure 9 and Supplementary Material Figures S211–S218). […] In contrast to this, the administered leads were harmless in both concentrations, neutralizing the MNU-induced changes, judging by the lobuloalveolar units and cuboidal epithelial cells found (Figure 9C,D, and Supplementary Material Figures S214–S218). […]
Histopathological Studies
histopathological changes. […]

ERβ = ERβ (Homo sapiens, UniProt Q92731); assay: Fluorescence polarization competition assay: antagonistic potency and relative binding affinity; conditions: for logRBA ERβ: log of % relative binding affinity, estradiol = 100%
Sequence of ERβ (Q92731 whole entry): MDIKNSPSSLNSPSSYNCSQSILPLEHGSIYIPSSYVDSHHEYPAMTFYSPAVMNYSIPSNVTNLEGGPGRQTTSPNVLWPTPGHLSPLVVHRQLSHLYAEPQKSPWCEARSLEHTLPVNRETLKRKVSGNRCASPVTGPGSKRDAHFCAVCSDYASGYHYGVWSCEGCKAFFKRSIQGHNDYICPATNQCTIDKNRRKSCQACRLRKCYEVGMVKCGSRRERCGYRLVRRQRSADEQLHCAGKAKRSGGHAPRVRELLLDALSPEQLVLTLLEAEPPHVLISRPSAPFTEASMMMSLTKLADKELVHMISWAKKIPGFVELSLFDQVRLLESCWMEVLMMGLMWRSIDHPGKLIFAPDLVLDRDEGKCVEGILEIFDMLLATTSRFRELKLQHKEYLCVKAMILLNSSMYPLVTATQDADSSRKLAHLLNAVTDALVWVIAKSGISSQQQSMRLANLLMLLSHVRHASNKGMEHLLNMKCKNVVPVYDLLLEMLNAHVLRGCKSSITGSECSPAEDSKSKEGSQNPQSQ

[4] = Plasma protein binding determination; type: in vitro ADME, rat; conditions: rat plasma, 37 °C, read-out: Rat PPB (%free)
Protocol: as §1, §2, §3
(§4) Upon finishing the treatment with synthesized compounds, animals were sacrificed, and plasma, serum, and liver samples were collected. […]
Rat plasma containing either 5 or 50 mg/kg bwt of the tested compounds was incubated at 37°C upper reservoir of the washed Centri-free YM-30 ultrafiltration units (Millipore, Bedford, MA) and then centrifuged for 20 min at 2,000 g. Aliquots of the ultrafiltrates and unfiltered incubation mixtures were analyzed for the total protein concentration by the bicinchoninic acid assay for protein concentration (BCA assay; Pierce, Rockford, IL).

[5] = Liver oxidative stress markers after treatment of MNU-induced rats; type: in vivo, Wistar rats; design: CAT: unit not given here; conditions: liver; for CAT: catalase activity; for GSH: reduced glutathione; for SOD (U/mg): superoxide dismutase activity; for TP: total protein content
Protocol: as §1, §2, §3, §4
Determination of Antioxidant Markers in Liver Homogenate
Rat liver samples were homogenized in phosphate buffer (5 mM, pH = 7.4) to give a 10% (w/v) liver homogenate and then centrifuged at 4000 rpm for 15 min at 4°C. The supernatant of liver homogenate was used for the estimation of reduced glutathione (GSH) and catalase (CAT) levels by the colorimetric method. The contents of malondialdehyde (MDA) in the supernatant of the liver homogenates were determined using 1,1,3,3-tetraethoxypropane as standard. Total protein concentrations were determined according to the method of Lowry using bovine serum albumin as […]

[6] = Pharmacokinetics study, oral bioavailability; conditions: rat
[7] = test system: Ishikawa endometrial adenocarcinoma cells; assay: Antiproliferative assay; type: cell-based; conditions: Homo sapiens, growth inhibition
Description: As SERMs profile is often associated with the stimulation of endometrial cell proliferation and an increase in the incidence of endometrial cancer (EC), the herein compounds were therefore evaluated against Ishikawa endometrial adenocarcinoma cells (Table 8, Supplementary Material Figures […]). […] However, future experimental elaboration, currently beyond the authors' experimental facilities, is required to confirm compounds' promising profiles in terms of no EC induction.

MCF-7 cells = assay: Cell cycle distribution by flow cytometry; type: cell-based, human; conditions: 24 h
[8] = MTT antiproliferative assay (neutral control); conditions: human
[9] = Lipophilicity by shake-flask method; conditions: pH 7.4
MDA-MB-231 cell lines = assay: MTT antiproliferative assay; type: cell-based, human; conditions: read-out: MDA-MB-231 (IC50 nM)
[10] = test system: progesterone receptor (PR); assay: ERα functional antagonism cell assay (PR as biomarker) in MCF-7; type: cell-based; conditions: Homo sapiens, MCF7; progesterone receptor as biomarker for ERα antagonism in MCF-7
[11] = dose 50 mg/kg (compounds per os after MNU; MNU alone i.p.)
[12] = MFD 1000 mg/kg (MNU: MTD 100 mg/kg bwt), 5 days

Compound: CC(=O)c1cc(C(=O)O[C@@H]2/C=C/C(=O)O[C@@H](O)CCC/C=C/[C@@H]3C[C@H](O)C[C@H]32)ccc1OCCS(=O)(=O)O [Compound 3DPQ-4, 2-(2-acetyl-4-((((1R,2E,6R,10E,11aS,13S,14aR)-6,13-dihydroxy-4-oxo-4,6,7,8,9,11a,12,13,14,14a-decahydro-1H-cyclopenta[f][1]oxacyclotridecin-1-yl)oxy)carbonyl)phenoxy)ethanesulfonic acid]
- Tumor Burden (week) ([1]; dose 5 mg/kg per os after MNU): 2.39 ± 0.56 *^,†,‡,‖ week
- Tumor Latency (week) ([1]; dose 5 mg/kg per os after MNU): 10 *^,† week
- Tumor Volume (mm^3) ([1]; dose 5 mg/kg per os after MNU): 0.98 ± 0.31 *^,†,‡,‖ mm^3
- Tumor Burden (week) [1, 11]: 1.33 ± 0.15 *^,†,§,┴ week
- Tumor Latency (week) [1, 11]: 14 *^,† week
- Tumor Volume (mm^3) [1, 11]: 0.41 ± 0.23 *^,†,§,┴ mm^3
- IC50 (MCF-7 cell lines; Homo sapiens, MCF7, growth inhibition, 48 h): 0.64 ± 0.15 nM
- ALP (A/L) ([2]; dose 5 mg/kg): 99.41±0.15 A/L
- ALT (A/L) ([2]; dose 5 mg/kg): 55.87±0.62 A/L
- AST (U/L) ([2]; dose 5 mg/kg): 57.53±0.43 U/L
- γ-GT (U/L) ([2]; dose 5 mg/kg): 11.54±0.53 U/L
- ALP (A/L) ([2]; dose 50 mg/kg): 104.52±0.31 A/L
- ALT (A/L) ([2]; dose 50 mg/kg): 59.74±0.1 A/L
- AST (U/L) ([2]; dose 50 mg/kg): 59.46±0.63 U/L
- γ-GT (U/L) ([2]; dose 50 mg/kg): 13.46±0.55 U/L
- TBC ([2]; dose 5 mg/kg): 19.31
- TBC ([2]; dose 50 mg/kg): 22.74
- breast section histopathology ([3]; 5 mg/kg of bwt): lobuloalveolar unit (LaU) and cuboidal epithelial cells (CE)
- breast section histopathology ([3]; 50 mg/kg of bwt): lobuloalveolar unit (LaU) and cuboidal epithelial cells (CE)
- Ki (ERβ; calculated antagonistic (inhibitory) constant, read-out: Ka ERβ): 0.0463 µM
- IC50 (ERβ; concentration that antagonizes 50% of ERβ signaling activity, read-out: ERβ (IC50 nM)): 82.45 ± 0.54 nM
- logRBA ERβ (ERβ): 0.03 ^†,‡,§
- fraction unbound at 5 mg/kg bwt [4]: 0.0123
- fraction unbound at 50 mg/kg bwt [4]: 0.0151
- CAT ([5]; dose 5 mg/kg): 16.34±0.73
- CAT ([5]; dose 50 mg/kg): 16.43±0.66
- TBARS ([5]; dose 5 mg/kg): 0.65 ± 0.21 nmol/mg
- TBARS ([5]; dose 50 mg/kg): 0.65 ± 0.34 nmol/mg
- GSH ([5]; dose 5 mg/kg): 9.87 mg/g
- GSH ([5]; dose 50 mg/kg): 10.36 mg/g
- SOD (U/mg) ([5]; dose 5 mg/kg): 8.73±0.38 U/mg
- SOD (U/mg) ([5]; dose 50 mg/kg): 10.57±0.73 U/mg
- TP ([5]; dose 50 mg/kg): 48.54 g/L
- BIO ([6]; oral 5 mg/kg): 90
- BIO ([6]; oral 50 mg/kg): 93
- IC50 [7]: 0.92 ± 0.43 nM
- WL after MFD (day 1, mg) (rat, in vivo): 320.73 ± 0.36 mg
- Cell Cycle (%) G0/G1 (MCF-7 cells; 0.1 nM): 77.78 ± 3.54 *^,†,‡,§ %
- Cell Cycle (%) G2/M (MCF-7 cells; 0.1 nM): 15.02 ± 4.23 *^,†,‡,§ %
- Cell Cycle (%) S (MCF-7 cells; 0.1 nM): 7.20 ± 2.88 *^,†,‡,§ %
- Cell Cycle (%) G0/G1 (MCF-7 cells; 1 nM): 80.24 ± 2.53 *^,†,‡,§ %
- Cell Cycle (%) G2/M (MCF-7 cells; 1 nM): 11.86 ± 3.43 *^,†,‡,§ %
- Cell Cycle (%) S (MCF-7 cells; 1 nM): 7.91 ± 0.1.54 *^,†,‡,§ %
- IC50 at 48 h [8]: > 100 nM
- logD at 30 min [9]: 1.88
- IC50 (MDA-MB-231 cell lines; Homo sapiens, MDA-MB-231, growth inhibition, 48 h): 67.31 ± 0.34 nM
- IC50 [10]: > 100 nM

Compound: CC/C(=C(\c1ccc(O)cc1)c1ccc(OCCN(C)C)cc1)c1ccccc1 [Compound 4-OHT., 4-hydroxytamoxifen, reference compound]
- Tumor Burden (week) ([1]; dose 5 mg/kg per os after MNU): 3.36 ± 0.38 *^,†,‖ week
- Tumor Latency (week) ([1]; dose 5 mg/kg per os after MNU): 7 * week
- Tumor Volume (mm^3) ([1]; dose 5 mg/kg per os after MNU): 1.88 ± 0.35 *^,†,‖ mm^3
- Tumor Burden (week) [1, 11]: 3.22 ± 0.21 *^,†,┴ week
- Tumor Latency (week) [1, 11]: 10 *^,† week
- Tumor Volume (mm^3) [1, 11]: 1.35 ± 0.63 *^,†,┴ mm^3
- IC50 (MCF-7 cell lines; growth inhibition, 48 h): 1.19 ± 0.57 nM
- IC50 (MCF-7 cell lines; references in Table S17): 1.24 ± 0.32 nM
- ALP (A/L) ([2]; dose 5 mg/kg): 105.32±0.31 A/L
- ALT (A/L) ([2]; dose 5 mg/kg): 52.44±0.31 A/L
- AST (U/L) ([2]; dose 5 mg/kg): 53.76±0.32 U/L
- γ-GT (U/L) ([2]; dose 5 mg/kg): 16.54 U/L
- ALP (A/L) ([2]; dose 50 mg/kg): 131.43±0.43 A/L
- ALT (A/L) ([2]; dose 50 mg/kg): 59.63±0.32 A/L
- AST (U/L) ([2]; dose 50 mg/kg): 58.41±0.25 U/L
- γ-GT (U/L) ([2]; dose 50 mg/kg): 18.47±0.45 U/L
- TBC ([2]; dose 5 mg/kg): 23.56
- TBC ([2]; dose 50 mg/kg): 25.57
- breast section histopathology ([3]; 5 mg/kg of bwt): necrosis (NEC)
- breast section histopathology ([3]; 50 mg/kg of bwt): necrosis (NEC)
- logRBA ERβ (ERβ): 1.39 ^†
- fraction unbound at 5 mg/kg bwt [4]: 0.0185
- fraction unbound at 50 mg/kg bwt [4]: 0.0252
- CAT ([5]; dose 5 mg/kg): 13.56±0.88
- CAT ([5]; dose 50 mg/kg): 20.46±0.76
- TBARS ([5]; dose 50 mg/kg): 3.63 ± 0.32 nmol/mg
- GSH ([5]; dose 5 mg/kg): 4.67 mg/g
- GSH ([5]; dose 50 mg/kg): 3.33 mg/g
- SOD (U/mg) ([5]; dose 5 mg/kg): 4.87±0.72 U/mg
- SOD (U/mg) ([5]; dose 50 mg/kg): 7.46±0.34 U/mg
- TP ([5]; dose 50 mg/kg): 47.46 g/L
- BIO ([6]; oral 5 mg/kg): 88 ^‖
- BIO ([6]; oral 50 mg/kg): 94
- IC50 [7]: 1.29 ± 0.43 nM
- colon section histopathology [12]: no morphological changes
- heart section histopathology [12]: no morphological changes
- kidney section histopathology [12]: no morphological changes
- liver section histopathology [12]: no morphological changes
- lung section histopathology [12]: no morphological changes
- spleen section histopathology [12]: no morphological changes
- WL after MFD (day 1, mg) (average body weight at day 1, dosing at MFD): 305.84 ± 0.59 mg
- WL after MFD (day 5, mg) (average body weight at day 5, dosing at MFD): 297.65 ± 0.39 mg
- MFD (5 days) (maximum feasible (or tolerated) dose, 5 days per os, 5-1000 mg/kg bwt): 1000 mg/kg
- Cell Cycle (%) G0/G1 (MCF-7 cells; 0.1 nM): 57.22 ± 0.37 *^,†,§ %
- Cell Cycle (%) G2/M (MCF-7 cells; 0.1 nM): 24.02 ± 0.53 *^,,†§ %
- Cell Cycle (%) S (MCF-7 cells; 0.1 nM): 18.76 ± 0.41 *^,†,§ %
- Cell Cycle (%) G0/G1 (MCF-7 cells; 1 nM): 63.26 ± 0.41 *^,†,§ %
- Cell Cycle (%) G2/M (MCF-7 cells; 1 nM): 15.60 ± 0.15 *^,†,§ %
- Cell Cycle (%) S (MCF-7 cells; 1 nM): 21.14 ± 0.25 *^,†,§ %
- IC50 at 48 h ([8]; MRC-5 lung fibroblast cells, MRC-5 (IC50 nM), growth inhibition): > 10 nM
- IC50 at 48 h ([8]; MRC-5 lung fibroblast cells, MRC-5 (IC50 nM), references in Table S17): > 100 nM
- logD at 30 min ([9]; n-octanol/phosphate buffer): 3.64
- IC50 (MDA-MB-231 cell lines; growth inhibition, 48 h): 37.1 ± 0.45 nM
- IC50 (MDA-MB-231 cell lines; references in Table S17): 37.04 ± 0.32 nM
- IC50 [10]: > 100 nM
